Data: PubChem BioAssay (NCI)
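Step 1: Grow cells in 96-well plates. Step 2: Expose to compound for 48 hours at 5 concentrations. Step 3: Interpolate endpoints linearly; if unreached, use highest concentration. TGI: concentration producing complete growth inhibition.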

How the values were obtained:
Assay in all cases: NCI anticancer screen, dose series, 48 h
[1] = tested on: SK-MEL-2 melanoma
[2] = tested on: KM12 colon
[3] = tested on: MDA-MB-231 breast
[4] = tested on: HOP-62 NSCLC
[5] = tested on: MOLT-4 leukemia
[6] = tested on: OVCAR-4 ovarian
[7] = tested on: MDA-N
[8] = tested on: LOX IMVI melanoma
[9] = tested on: SF-268 CNS
[10] = tested on: HCC-2998 colon
[11] = tested on: HT29 colon
[12] = tested on: SK-OV-3 ovarian
[13] = tested on: 786-0 renal
[14] = tested on: IGROV1 ovarian
[15] = tested on: SF-539 CNS
[16] = tested on: ACHN renal
[17] = tested on: SR leukemia
[18] = tested on: BT-549 breast
[19] = tested on: HCT-15 colon
[20] = tested on: SN12C renal
[21] = tested on: NCI-H226 lung
[22] = tested on: RPMI-8226 leukemia
[23] = tested on: M14 melanoma
[24] = tested on: UO-31 renal
[25] = tested on: HL-60(TB) leukemia
[26] = tested on: HOP-92 NSCLC
[27] = tested on: HS 578T breast
[28] = tested on: CAKI-1 renal
[29] = tested on: OVCAR-8 ovarian
[30] = tested on: SK-MEL-28 melanoma
[31] = tested on: U251 CNS
[32] = tested on: SF-295 CNS
[33] = tested on: A549 NSCLC
[34] = tested on: HCT-116 colon
[35] = tested on: TK-10 renal
[36] = tested on: OVCAR-5 ovarian
[37] = tested on: T-47D breast
[38] = tested on: A498 renal
[39] = tested on: UACC-257 melanoma
[40] = tested on: MALME-3M melanoma
[41] = tested on: EKVX NSCLC
[42] = tested on: NCI/ADR-RES ovarian
[43] = tested on: SNB-19 CNS
[44] = tested on: MDA-MB-435
[45] = tested on: K-562 leukemia
[46] = tested on: CCRF-CEM leukemia
[47] = tested on: OVCAR-3 ovarian
[48] = tested on: SW-620 colon
[49] = tested on: NCI-H23 lung
[50] = tested on: DU-145 prostate
[51] = tested on: SK-MEL-5 melanoma
[52] = tested on: NCI-H522 lung
[53] = tested on: UACC-62 melanoma
[54] = tested on: COLO 205 colon
[55] = tested on: PC-3 prostate
[56] = tested on: SNB-75 CNS
[57] = tested on: MCF7 breast

Measured: TGI

Cc1cc(Nc2ccc(S(=O)(=O)O)cc2)c2ccccc2n1
> 100 µM: all assays above
